In PMC10235067, “Increased renal elimination of endogenous and synthetic pyrimidine nucleosides in concentrative nucleoside transporter 1 deficient mice” (Nature Communications, 2023):
Several values for one entry are separate records, joined by “and”; a condition that tells them apart may be missing. Identical values can stand only once.

Assay: Gemcitabine plasma pharmacokinetics in Slc28a1+/+ and Slc28a1-/- mice
Conditions: Gem-TP in plasma, single intravenous dose of gemcitabine 50mg/kg, individual mice

SMILES: Nc1ccn([C@@H]2O[C@H](COP(=O)(O)OP(=O)(O)OP(=O)(O)O)[C@@H](O)C2(F)F)c(=O)n1 [Gem-TP]
- AUCINF_D_obs (KO (Slc28a1-/-) mice): 509.381 kg·ng·min/mL/mg and 272.158 kg·ng·min/mL/mg and 1500.18 kg·ng·min/mL/mg and 597.23 kg·ng·min/mL/mg and 1529.97 kg·ng·min/mL/mg and 1749.53 kg·ng·min/mL/mg
- AUCINF_D_pred (KO (Slc28a1-/-) mice): 476.443 kg·ng·min/mL/mg and 251.621 kg·ng·min/mL/mg and 1436.01 kg·ng·min/mL/mg and 561.179 kg·ng·min/mL/mg and 1459.25 kg·ng·min/mL/mg and 1679.11 kg·ng·min/mL/mg
- AUCINF_obs (KO (Slc28a1-/-) mice): 25469 ng·min/mL and 13607.9 ng·min/mL and 75008.8 ng·min/mL and 29861.5 ng·min/mL and 76498.5 ng·min/mL and 87476.7 ng·min/mL
- AUCINF_pred (KO (Slc28a1-/-) mice): 23822.1 ng·min/mL and 12581.1 ng·min/mL and 71800.6 ng·min/mL and 28058.9 ng·min/mL and 72962.4 ng·min/mL and 83955.6 ng·min/mL
- AUC_%Back_Ext_obs (KO (Slc28a1-/-) mice): 0.5829% and 5.828% and 0.4312% and 2.002% and 0.5682% and 0.06111%
- AUC_%Back_Ext_pred (KO (Slc28a1-/-) mice): 0.6232% and 6.304% and 0.4505% and 2.131% and 0.5957% and 0.06367%
- AUC_%Extrap_obs (KO (Slc28a1-/-) mice): 67.4874% and 53.7747% and 79.3116% and 67.9349% and 78.2847% and 81.1285%
- AUC_%Extrap_pred (KO (Slc28a1-/-) mice): 65.2397% and 50.0019% and 78.3872% and 65.875% and 77.2323% and 80.3371%
- AUCall (KO (Slc28a1-/-) mice): 8280.65 ng·min/mL and 6290.29 ng·min/mL and 15518.1 ng·min/mL and 9575.11 ng·min/mL and 16611.9 ng·min/mL and 16508.1 ng·min/mL
- AUClast (KO (Slc28a1-/-) mice): 8280.65 ng·min/mL and 6290.29 ng·min/mL and 15518.1 ng·min/mL and 9575.11 ng·min/mL and 16611.9 ng·min/mL and 16508.1 ng·min/mL
- AUClast_D (KO (Slc28a1-/-) mice): 165.613 kg·ng·min/mL/mg and 125.806 kg·ng·min/mL/mg and 310.363 kg·ng·min/mL/mg and 191.502 kg·ng·min/mL/mg and 332.237 kg·ng·min/mL/mg and 330.163 kg·ng·min/mL/mg
- AUMCINF_obs (KO (Slc28a1-/-) mice): 14271006 min*min*ng/mL and 5009676 min*min*ng/mL and 73111057 min*min*ng/mL and 17625971 min*min*ng/mL and 70582595 min*min*ng/mL and 93013834 min*min*ng/mL
- AUMCINF_pred (KO (Slc28a1-/-) mice): 12992303 min*min*ng/mL and 4388328 min*min*ng/mL and 69264936 min*min*ng/mL and 16149841 min*min*ng/mL and 66527378 min*min*ng/mL and 88496254 min*min*ng/mL
- AUMC_%Extrap_obs (KO (Slc28a1-/-) mice): 93.5147% and 88.3871% and 97.5522% and 94.251% and 97.3007% and 97.8918%
- AUMC_%Extrap_pred (KO (Slc28a1-/-) mice): 92.8764% and 86.7428% and 97.4162% and 93.7255% and 97.1361% and 97.7841%
- AUMClast (KO (Slc28a1-/-) mice): 925521 min*min*ng/mL and 581771 min*min*ng/mL and 1789646 min*min*ng/mL and 1013321 min*min*ng/mL and 1905271 min*min*ng/mL and 1960946 min*min*ng/mL
- Cl_pred (KO (Slc28a1-/-) mice): 2098.89 mL/min/kg and 3974.23 mL/min/kg and 696.373 mL/min/kg and 1781.96 mL/min/kg and 685.285 mL/min/kg and 595.553 mL/min/kg
- Clast (KO (Slc28a1-/-) mice): 32.0426 ng/mL and 20.0426 ng/mL and 62.0426 ng/mL and 35.0426 ng/mL and 66.0426 ng/mL and 68.0426 ng/mL
- Clast_pred (KO (Slc28a1-/-) mice): 28.9724 ng/mL and 17.2301 ng/mL and 58.6968 ng/mL and 31.9288 ng/mL and 62.1429 ng/mL and 64.6666 ng/mL
- Cmax (KO (Slc28a1-/-) mice): 49.2745 ng/mL and 91.6911 ng/mL and 79.2745 ng/mL and 88.6911 ng/mL and 85.6911 ng/mL and 85.2745 ng/mL
- Cmax_D (KO (Slc28a1-/-) mice): 0.9855 kg·ng/mL/mg and 1.834 kg·ng/mL/mg and 1.585 kg·ng/mL/mg and 1.774 kg·ng/mL/mg and 1.714 kg·ng/mL/mg and 1.705 kg·ng/mL/mg
- HL_Lambda_z (KO (Slc28a1-/-) mice): 371.821 min and 253.07 min and 664.637 min and 401.268 min and 628.538 min and 722.954 min
- Lambda_z (KO (Slc28a1-/-) mice): 0.001864 min⁻¹ and 0.002739 min⁻¹ and 0.001043 min⁻¹ and 0.001727 min⁻¹ and 0.001103 min⁻¹ and 0.0009588 min⁻¹
- MRTINF_obs (KO (Slc28a1-/-) mice): 9.33878 h and 6.13575 h and 16.24 h and 9.83763 h and 15.3778 h and 17.722 h
- MRTINF_pred (KO (Slc28a1-/-) mice): 9.0898 h and 5.81342 h and 16.0781 h and 9.59282 h and 15.1967 h and 17.568 h
- MRTlast (KO (Slc28a1-/-) mice): 1.86282 h and 1.54145 h and 1.9221 h and 1.76382 h and 1.91155 h and 1.97978 h
- Tlast (KO (Slc28a1-/-) mice): 240 min
- Tmax (KO (Slc28a1-/-) mice): 0.167 h and 0.083 h
- Vss_obs (KO (Slc28a1-/-) mice): 1100.017 L/kg and 1352.688 L/kg and 649.724 L/kg and 988.326 L/kg and 603.062 L/kg and 607.76 L/kg
- Vss_pred (KO (Slc28a1-/-) mice): 1144.708 L/kg and 1386.23 L/kg and 671.779 L/kg and 1025.643 L/kg and 624.846 L/kg and 627.762 L/kg
- Vz_obs (KO (Slc28a1-/-) mice): 1053.09 L/kg and 1341.512 L/kg and 639.17 L/kg and 969.32 L/kg and 592.684 L/kg and 596.16 L/kg
- Vz_pred (KO (Slc28a1-/-) mice): 1125.894 L/kg and 1451.004 L/kg and 667.729 L/kg and 1031.591 L/kg and 621.408 L/kg and 621.163 L/kg
- AUCINF_D_obs (WT (Slc28a1+/+) mice): 627.983 kg·ng·min/mL/mg and 293.244 kg·ng·min/mL/mg and 2095.28 kg·ng·min/mL/mg and 746.583 kg·ng·min/mL/mg and 2357.3 kg·ng·min/mL/mg and 2481.13 kg·ng·min/mL/mg
- AUCINF_D_pred (WT (Slc28a1+/+) mice): 611.177 kg·ng·min/mL/mg and 283.996 kg·ng·min/mL/mg and 2059.29 kg·ng·min/mL/mg and 727.87 kg·ng·min/mL/mg and 2318.74 kg·ng·min/mL/mg and 2441.28 kg·ng·min/mL/mg
- AUCINF_obs (WT (Slc28a1+/+) mice): 31399.2 ng·min/mL and 14662.2 ng·min/mL and 104764 ng·min/mL and 37329.2 ng·min/mL and 117865 ng·min/mL and 124056 ng·min/mL
- AUCINF_pred (WT (Slc28a1+/+) mice): 30558.9 ng·min/mL and 14199.8 ng·min/mL and 102964 ng·min/mL and 36393.5 ng·min/mL and 115937 ng·min/mL and 122064 ng·min/mL
- AUC_%Back_Ext_obs (WT (Slc28a1+/+) mice): 0.6002% and 4.658% and 0.3469% and 1.514% and 0.3975% and 0.07533%
- AUC_%Back_Ext_pred (WT (Slc28a1+/+) mice): 0.6167% and 4.81% and 0.353% and 1.5528% and 0.4041% and 0.07656%
- AUC_%Extrap_obs (WT (Slc28a1+/+) mice): 74.9814% and 61.0207% and 85.5932% and 75.6831% and 86.2719% and 87.0356%
- AUC_%Extrap_pred (WT (Slc28a1+/+) mice): 74.2934% and 59.7514% and 85.3414% and 75.0579% and 86.0436% and 86.824%
- AUCall (WT (Slc28a1+/+) mice): 7855.65 ng·min/mL and 5715.22 ng·min/mL and 15093.1 ng·min/mL and 9077.31 ng·min/mL and 16180.6 ng·min/mL and 16083.1 ng·min/mL
- AUClast (WT (Slc28a1+/+) mice): 7855.65 ng·min/mL and 5715.22 ng·min/mL and 15093.1 ng·min/mL and 9077.31 ng·min/mL and 16180.6 ng·min/mL and 16083.1 ng·min/mL
- AUClast_D (WT (Slc28a1+/+) mice): 157.113 kg·ng·min/mL/mg and 114.304 kg·ng·min/mL/mg and 301.863 kg·ng·min/mL/mg and 181.546 kg·ng·min/mL/mg and 323.613 kg·ng·min/mL/mg and 321.663 kg·ng·min/mL/mg
- AUMCINF_obs (WT (Slc28a1+/+) mice): 25618307 min*min*ng/mL and 7382666 min*min*ng/mL and 159455048 min*min*ng/mL and 32660009 min*min*ng/mL and 190278277 min*min*ng/mL and 207071348 min*min*ng/mL
- AUMCINF_pred (WT (Slc28a1+/+) mice): 24735428 min*min*ng/mL and 7028934 min*min*ng/mL and 156289942 min*min*ng/mL and 31610468 min*min*ng/mL and 186705642 min*min*ng/mL and 203285848 min*min*ng/mL
- AUMC_%Extrap_obs (WT (Slc28a1+/+) mice): 96.5565% and 92.707% and 98.9048% and 97.0301% and 99.0215% and 99.0739%
- AUMC_%Extrap_pred (WT (Slc28a1+/+) mice): 96.4336% and 92.3399% and 98.8827% and 96.9315% and 99.0028% and 99.0567%
- AUMClast (WT (Slc28a1+/+) mice): 882171 min*min*ng/mL and 538421 min*min*ng/mL and 1746296 min*min*ng/mL and 969971 min*min*ng/mL and 1861921 min*min*ng/mL and 1917596 min*min*ng/mL
- Cl_pred (WT (Slc28a1+/+) mice): 1636.19 mL/min/kg and 3521.18 mL/min/kg and 485.605 mL/min/kg and 1373.87 mL/min/kg and 431.268 mL/min/kg and 409.621 mL/min/kg
- Clast (WT (Slc28a1+/+) mice): 29.0426 ng/mL and 17.0426 ng/mL and 59.0426 ng/mL and 32.0426 ng/mL and 63.0426 ng/mL and 65.0426 ng/mL
- Clast_pred (WT (Slc28a1+/+) mice): 28.006 ng/mL and 16.1618 ng/mL and 57.8576 ng/mL and 30.9814 ng/mL and 61.8472 ng/mL and 63.8424 ng/mL
- Cmax (WT (Slc28a1+/+) mice): 69.2745 ng/mL and 99.6911 ng/mL and 99.2745 ng/mL and 96.6911 ng/mL and 103.275 ng/mL and 105.275 ng/mL
- Cmax_D (WT (Slc28a1+/+) mice): 1.385 kg·ng/mL/mg and 1.994 kg·ng/mL/mg and 1.985 kg·ng/mL/mg and 1.934 kg·ng/mL/mg and 2.065 kg·ng/mL/mg and 2.105 kg·ng/mL/mg
- HL_Lambda_z (WT (Slc28a1+/+) mice): 561.904 min and 363.887 min and 1052.72 min and 611.146 min and 1118.01 min and 1150.65 min
- Lambda_z (WT (Slc28a1+/+) mice): 0.001234 min⁻¹ and 0.001905 min⁻¹ and 0.0006584 min⁻¹ and 0.001134 min⁻¹ and 0.00062 min⁻¹ and 0.0006024 min⁻¹
- MRTINF_obs (WT (Slc28a1+/+) mice): 13.5982 h and 8.39195 h and 25.3673 h and 14.582 h and 26.9062 h and 27.8195 h
- MRTINF_pred (WT (Slc28a1+/+) mice): 13.4906 h and 8.25005 h and 25.298 h and 14.4762 h and 26.84 h and 27.757 h
- MRTlast (WT (Slc28a1+/+) mice): 1.87163 h and 1.57014 h and 1.92835 h and 1.78095 h and 1.91785 h and 1.9872 h
- Tlast (WT (Slc28a1+/+) mice): 240 min
- Tmax (WT (Slc28a1+/+) mice): 0.167 h and 0.083 h
- Vss_obs (WT (Slc28a1+/+) mice): 1299.224 L/kg and 1717.058 L/kg and 726.413 L/kg and 1171.898 L/kg and 684.839 L/kg and 672.746 L/kg
- Vss_pred (WT (Slc28a1+/+) mice): 1324.388 L/kg and 1742.993 L/kg and 737.1 L/kg and 1193.31 L/kg and 694.517 L/kg and 682.183 L/kg
- Vz_obs (WT (Slc28a1+/+) mice): 1290.887 L/kg and 1790.244 L/kg and 724.843 L/kg and 1180.977 L/kg and 684.235 L/kg and 669.067 L/kg
- Vz_pred (WT (Slc28a1+/+) mice): 1326.384 L/kg and 1848.542 L/kg and 737.512 L/kg and 1211.34 L/kg and 695.614 L/kg and 679.987 L/kg
